The term MIC denotes the smallest concentration in the dilution series that meets the test's criterion for growth inhibition.

The results in this text go back to patent US10596150B2, “Antifungal agents” (F2G LIMITED, priority 2014, dated 2020).

≈ marks a conversion by molar mass, not a printed value.

Common to all, as to test: Minimum Inhibitory Concentration (MIC), RPMI medium
Holding throughout (assay type): cell-based

The subject of one test is A. terreus 49. As to conditions: Aspergillus terreus, >80% growth inhibition. The protocol:
(§1) Between 1 and 5 mgs of the compound were accurately weighed out into a sterile Eppendorf tube. The compound was dissolved in DMSO to give a solution containing 5 mg/mL. Tubes were stored at −20° C. until required.
(§2) On the day of testing thawed solutions were vortex mixed to ensure homogeneity. 30 μL of solution was removed and added to 570 μL of sterile water in a separate sterile Eppendorf. The thoroughly mixed solution was used to prepare a series of doubling dilutions in water, in a deep well plate. Thirteen replicate plates were prepared using a Minitrak by aspirating 20 μL from each well into eleven clear polystyrene 96 well plates.
(§3) Spores of Aspergillus and Scedosporium were harvested from cultures grown on Sabarauds agar for 5 days, and resuspended in PBS/Tween 80 to approx 1×10^7 cfu/mL. Each organism suspension was diluted in RPMI medium, containing 2% glucose and 0.135 M MOPS buffer (pH 7.0) to 0.5-2×10^4 cfu/mL. 80 μL of an organism suspension was added to each well of the plate containing drug dilutions.
(§4) This produced MIC plates with a drug range 50-0.05 mg/L and organism inocula of 1-2×10^4 cfu/mL. All plates were incubated for 24-48 h at 35° C. Growth was assessed by monitoring the optical density at 485 nm for each well. The MIC of a compound is the lowest drug concentration that inhibits growth of an organism by >80% compared with a drug free control.

Another test relates to A. fumigatus. The following applies: Aspergillus fumigatus, >80% growth inhibition. On the procedure: as §1, §2, §3, §4
The subject of a further test is A. terreus. The following applies: Aspergillus terreus, >80% growth inhibition. The protocol:
as §1, §2, §3, §4

Another test relates to A. flavus. As to conditions: Aspergillus flavus, >80% growth inhibition. The protocol:
as §1, §2, §3, §4

For the next test, the system named is A. fumigatus 210. The following applies: Aspergillus fumigatus, >80% growth inhibition. The protocol: as §1, §2, §3, §4
A further test concerns A. niger. The following applies: Aspergillus niger, >80% growth inhibition. The protocol: as §1, §2, §3, §4
In test [1] the test system is Scedosporium apiospermum 7935. On the procedure: as §1, §2, §3, §4
For test [2], the system named is Scedosporium apiospermum 4883. On the procedure: as §1, §2, §3, §4
In test [3] the test system is Scedosporium apiospermum 13486. The protocol: as §1, §2, §3, §4
Test [4] concerns Scedosporium apiospermum 8353. On the procedure: as §1, §2, §3, §4
Test [5] has as its system Scedosporium apiospermum 15848. On the procedure: as §1, §2, §3, §4
Test [6] deals with Scedosporium prolificans 206. As to conditions: Lomentospora prolificans. The protocol: as §1, §2, §3, §4
Test [7] deals with Scedosporium prolificans 18389. The following applies: Lomentospora prolificans. The protocol: as §1, §2, §3, §4
The test system of test [8] is Scedosporium apiospermum 451. On the procedure: as §1, §2, §3, §4
The subject of test [9] is Scedosporium species 15849. On the procedure: as §1, §2, §3, §4
Test [10] deals with Scedosporium prolificans 6322. The following applies: Lomentospora prolificans. On the procedure: as §1, §2, §3, §4

Take `Cc1cc(C)nc(N2CCN(c3ccc(NC(=O)C(=O)c4c(-c5ccccc5)cc(C)n4C)cc3Cl)CC2)c1` [Ref. Example 9, N-{3-Chloro-4-[4-(4,6-dimethyl-pyridin-2-yl)-piperazin-1-yl]-phenyl}-2-(1,5-dimethyl-3-phenyl-1H-pyrrol-2-yl)-2-oxo-acetamide]: the MIC against A. terreus 49, with A. fumigatus, in the test on A. terreus, with A. flavus, in the test on A. fumigatus 210 and with A. niger was 0.04 to 0.06 mg/L (≈ 0.0738 to 0.111 µM) throughout.

`[2H]c1c([2H])c(N2CCN(c3ncc(F)cn3)CC2)c([2H])c([2H])c1NC(=O)C(=O)c1c(-c2ccccc2)cc(C)n1C` [Example 4, 2-(1,5-dimethyl-3-phenyl-1H-pyrrol-2-yl)-N-(4-(4-(5-fluoropyrimidin-2-yl)piperazin-1-yl)phenyl-2,3,5,6-d4)-2-oxoacetamide]: the MIC in the test with A. terreus 49, with A. fumigatus, with A. terreus, against A. flavus, in the test on A. fumigatus 210 and in the test on A. niger was 0.04 to 0.06 mg/L (≈ 0.0796 to 0.119 µM) throughout.

For `Cc1cccc(N2CCN(c3ccc(NC(=O)C(=O)c4c(-c5ccccc5)cc(C)n4C)cc3)CC2)n1` [Ref. Example 5, 2-(1,5-Dimethyl-3-phenyl-1H-pyrrol-2-yl)-N-{4-[4-(6-methyl-pyridin-2-yl)-piperazin-1-yl]-phenyl}-2-oxo-acetamide], the MIC in the test with A. terreus 49 was 0.04 to 0.06 mg/L (≈ 0.081 to 0.122 µM); against A. fumigatus, 0.04 to 0.06 mg/L (≈ 0.081 to 0.122 µM); in the test with A. terreus, 0.04 to 0.06 mg/L (≈ 0.081 to 0.122 µM); against A. flavus, 0.04 to 0.06 mg/L (≈ 0.081 to 0.122 µM); in the test on A. fumigatus 210, 0.04 to 0.06 mg/L (≈ 0.081 to 0.122 µM); in the test on A. niger, more than 0.06 mg/L.

For the compound `Cc1cc(-c2ccccc2)c(C(=O)C(=O)Nc2ccc(N3CCN(c4ccccn4)CC3)cc2F)n1C` [Ref. Example 2, 2-(1,5-Dimethyl-3-phenyl-1H-pyrrol-2-yl)-N-[2-fluoro-4-(4-pyridin-2-yl-piperazin-1-yl)-phenyl]-2-oxo-acetamide], the MIC against A. terreus 49, against A. fumigatus, in the test on A. terreus, in the test with A. flavus, in the test on A. fumigatus 210 and against A. niger was 0.04 to 0.06 mg/L (≈ 0.0804 to 0.121 µM) throughout.

Consider `Cc1cc(-c2ccccc2)c(C(=O)C(=O)Nc2ccc(N3CCN(c4ccccn4)CC3)c(F)c2)n1C` [Ref. Example 1, 2-(1,5-Dimethyl-3-phenyl-1H-pyrrol-2-yl)-N-[3-fluoro-4-(4-pyridin-2-yl-piperazin-1-yl)-phenyl]-2-oxo-acetamide], for which the MIC in the test with A. terreus 49 is 0.04 to 0.06 mg/L (≈ 0.0804 to 0.121 µM); against A. fumigatus it was 0.04 to 0.06 mg/L (≈ 0.0804 to 0.121 µM); in the test with A. terreus, 0.04 to 0.06 mg/L (≈ 0.0804 to 0.121 µM); against A. flavus, more than 0.06 mg/L; against A. fumigatus 210, 0.04 to 0.06 mg/L (≈ 0.0804 to 0.121 µM); against A. niger, 0.04 to 0.06 mg/L (≈ 0.0804 to 0.121 µM).

For the compound `Cc1cc(-c2ccccc2)c(C(=O)C(=O)Nc2ccc(N3CCN(c4ccccn4)CC3)cc2)n1C` [Ref. Example 6, 2-(1,5-Dimethyl-3-phenyl-1H-pyrrol-2-yl)-2-oxo-N-[4-(4-pyridin-2-yl-piperazin-1-yl)-phenyl]-acetamide], the MIC in test [1] was more than 0.06 mg/L; in [2], more than 0.06 mg/L; in test [3] (Scedosporium apiospermum, 13486), more than 0.06 mg/L; in test [4], more than 0.06 mg/L; in [5], more than 0.06 mg/L; in test [6] it was more than 0.06 mg/L. For the same compound, the MIC in test [7] was more than 0.06 mg/L; against A. terreus 49, 0.04 to 0.06 mg/L (≈ 0.0834 to 0.125 µM); in test [8], more than 0.06 mg/L; in test [9], more than 0.06 mg/L; in the test with A. fumigatus it was 0.04 to 0.06 mg/L (≈ 0.0834 to 0.125 µM); in [10], more than 0.06 mg/L. In addition, the MIC is 0.04 to 0.06 mg/L (≈ 0.0834 to 0.125 µM) against A. terreus, 0.04 to 0.06 mg/L (≈ 0.0834 to 0.125 µM) against A. flavus, 0.04 to 0.06 mg/L (≈ 0.0834 to 0.125 µM) against A. fumigatus 210 and more than 0.06 mg/L in the test with A. niger. For the same compound, in test [3], the “MIC Scedosporium apiospermum 13486” value is “F (a grade of F represents an MIC of greater than 0.06 mg/L)”.

Take `Cc1cc(C)nc(N2CCN(c3ccc(NC(=O)C(=O)c4c(-c5ccccc5)cc(C)n4C)cc3C)CC2)c1` [Ref. Example 3, 2-(1,5-Dimethyl-3-phenyl-1H-pyrrol-2-yl)-N-{4-[4-(4,6-dimethyl-pyridin-2-yl)-piperazin-1-yl]-3-methyl-phenyl}-2-oxo-acetamide]: the MIC against A. terreus 49, against A. fumigatus, against A. terreus, with A. flavus, against A. fumigatus 210 and against A. niger was 0.04 to 0.06 mg/L (≈ 0.0767 to 0.115 µM) each time.

As to `Cc1cc(C)nc(N2CCN(c3ccc(NC(=O)C(=O)c4c(-c5ccccc5)cc(C)n4C)c(Cl)c3)CC2)c1` [Ref. Example 8, N-{2-Chloro-4-[4-(4,6-dimethyl-pyridin-2-yl)-piperazin-1-yl]-phenyl}-2-(1,5-dimethyl-3-phenyl-1H-pyrrol-2-yl)-2-oxo-acetamide], the MIC against A. terreus 49, with A. fumigatus, against A. terreus, in the test on A. flavus, in the test on A. fumigatus 210 and against A. niger was 0.04 to 0.06 mg/L (≈ 0.0738 to 0.111 µM) each time.

On to `[2H]C1([2H])N(c2ccc(NC(=O)C(=O)c3c(-c4ccccc4)cc(C)n3C)cc2)C([2H])([2H])C([2H])([2H])N(c2ncc(F)cn2)C1([2H])[2H]` [Example 3, 2-(1,5-dimethyl-3-phenyl-1H-pyrrol-2-yl)-N-(4-(4-(5-fluoropyrimidin-2-yl)piperazin-1-yl-2,2,3,3,5,5,6,6-d8)phenyl)-2-oxoacetamide], for which the MIC against A. terreus 49, in the test on A. fumigatus, in the test on A. terreus, against A. flavus, against A. fumigatus 210 and with A. niger was 0.04 to 0.06 mg/L (≈ 0.079 to 0.118 µM) in each case.

For the compound `Cc1ccnc(N2CCN(c3ccc(NC(=O)C(=O)c4c(-c5ccccc5)cc(C)n4C)cc3)CC2)c1` [Ref. Example 4, 2-(1,5-Dimethyl-3-phenyl-1H-pyrrol-2-yl)-N-{4-[4-(4-methyl-pyridin-2-yl)-piperazin-1-yl]-phenyl}-2-oxo-acetamide], the MIC against A. terreus 49, against A. fumigatus, against A. terreus, in the test with A. flavus, with A. fumigatus 210 and in the test on A. niger was 0.04 to 0.06 mg/L (≈ 0.081 to 0.122 µM) throughout.

Regarding `Cc1cc(C)nc(N2CCN(c3ccc(NC(=O)C(=O)c4c(-c5ccccc5)cc(C)n4C)cc3O)CC2)c1` [Ref. Example 7, 2-(1,5-Dimethyl-3-phenyl-1H-pyrrol-2-yl)-N-{4-[4-(4,6-dimethyl-pyridin-2-yl)-piperazin-1-yl]-3-hydroxy-phenyl}-2-oxo-acetamide], the minimal inhibitory concentration (MIC) is more than 0.06 mg/L against A. terreus 49; more than 0.06 mg/L with A. fumigatus; more than 0.06 mg/L against A. terreus; 0.04 to 0.06 mg/L (≈ 0.0764 to 0.115 µM) in the test with A. flavus; more than 0.06 mg/L against A. fumigatus 210; more than 0.06 mg/L against A. niger.
